Values belong to the molecule of their own block, whether it stands above or below them. Activity calls are given as the source filed them.
Experiments:
[1] = target: 1-phosphatidylinositol 4,5-bisphosphate phosphodiesterase beta-3 (Homo sapiens, UniProt Q01970); test: Fluorescence-based biochemical high throughput dose response assay to identify inhibitors of phospholipase C isozymes (PLC-B3).
[2] = target: 1-phosphatidylinositol 4,5-bisphosphate phosphodiesterase gamma-1 (Homo sapiens, UniProt P19174); test: Counterscreen for inhibitors of phospholipase C isozymes (PLC-B3): Fluorescence-based biochemical high throughput dose response assay to identify inhibitors of phospholipase C isozymes (PLC-gamma1).
[3] = target: NAD-dependent protein deacylase sirtuin-5, mitochondrial (Homo sapiens, UniProt Q9NXA8); test: SIRT5 desuccinylase inhibitors, dose response, biochemical, fluorescence imaging, cherry-pick, set 5 (AID 720591);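 note: desuccinylation of succinyl peptide AMC substrate read as fluorescence after trypsin release; potency of inhibitors that lower fluorescence and may act on trypsin instead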
[4] = target: T1, Zinc finger protein mex-5 (Caenorhabditis elegans, UniProt Q9XUB2); test: MEX-5/TCR-2 RNA interaction inhibitors, dose response, biochemical, C. elegans, fluorescence polarization (AID 1960)
T1 sequence (Q9XUB2 whole entry): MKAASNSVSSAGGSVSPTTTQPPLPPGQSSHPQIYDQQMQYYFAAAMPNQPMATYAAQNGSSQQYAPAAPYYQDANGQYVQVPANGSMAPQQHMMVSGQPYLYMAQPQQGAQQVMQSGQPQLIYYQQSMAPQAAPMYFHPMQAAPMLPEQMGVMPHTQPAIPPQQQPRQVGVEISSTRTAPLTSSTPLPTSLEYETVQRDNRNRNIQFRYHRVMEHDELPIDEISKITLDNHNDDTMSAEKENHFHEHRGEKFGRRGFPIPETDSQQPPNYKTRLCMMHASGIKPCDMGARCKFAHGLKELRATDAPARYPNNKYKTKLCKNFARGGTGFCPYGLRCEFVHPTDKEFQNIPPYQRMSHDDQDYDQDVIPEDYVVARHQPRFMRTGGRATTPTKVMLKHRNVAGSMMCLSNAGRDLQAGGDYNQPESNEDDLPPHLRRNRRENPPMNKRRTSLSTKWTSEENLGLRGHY

[5] = target: T2, RNA-binding protein pos-1 (Caenorhabditis elegans, UniProt G5EF15); test: inhibitors of POS-1/mex-3 RNA binding, dose response, biochemical, fluorescence polarization (AID 1964);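 note: purified POS-1 fused to maltose binding protein made in E. coli; potency of compounds blocking POS-1 binding to fluorescent RNA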
T2 sequence (G5EF15 whole entry): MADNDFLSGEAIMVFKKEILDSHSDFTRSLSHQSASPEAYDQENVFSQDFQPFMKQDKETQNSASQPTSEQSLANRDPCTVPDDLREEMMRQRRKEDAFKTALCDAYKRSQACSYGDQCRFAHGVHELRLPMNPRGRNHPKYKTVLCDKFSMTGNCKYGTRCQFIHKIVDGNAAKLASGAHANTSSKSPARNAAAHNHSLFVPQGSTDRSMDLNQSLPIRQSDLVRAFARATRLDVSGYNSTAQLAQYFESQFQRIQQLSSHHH

cells [6] = conditions: A549
[7] = target: Disintegrin and metalloproteinase domain-containing protein 17 (Homo sapiens, UniProt P78536); test: ADAM17 protease inhibitors, dose response, counter-screen for ADAM10 exosite inhibitor project, biochemical, quenched FRET substrate (AID 743253)
[8] = ADAM10 inhibitors, peptide cleavage, dose response, biochemical, QFRET (AID 743254);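 note: ADAM10 enzyme with the DM2 quenched FRET peptide as substrate; EDANS fluorescence gain as the protease cuts the substrate; inhibitor potency against ADAM10 proteolytic activity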
[9] = T. cruzi growth inhibition in host cells, dose response, cell-based, plate reader, dry powder, set 2 (AID 652275); assay type: functional
Large T antigen = Large T antigen (Simian virus 40, UniProt P03070); assay type: functional, Betapolyomavirus macacae;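 note: Confirmatory-stage PubChem screen for compounds that inhibit SV40 T antigen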
cells [10] = assay type: functional, cell-based
[11] = target: T3, Trace amine-associated receptor 1 (Homo sapiens, UniProt Q96RJ0); test: Fluorescence-based cell-based high throughput dose response assay to identify agonists of the human trace amine associated receptor 1 (TAAR1).; assay type: functional
T3 sequence (Q96RJ0 whole entry): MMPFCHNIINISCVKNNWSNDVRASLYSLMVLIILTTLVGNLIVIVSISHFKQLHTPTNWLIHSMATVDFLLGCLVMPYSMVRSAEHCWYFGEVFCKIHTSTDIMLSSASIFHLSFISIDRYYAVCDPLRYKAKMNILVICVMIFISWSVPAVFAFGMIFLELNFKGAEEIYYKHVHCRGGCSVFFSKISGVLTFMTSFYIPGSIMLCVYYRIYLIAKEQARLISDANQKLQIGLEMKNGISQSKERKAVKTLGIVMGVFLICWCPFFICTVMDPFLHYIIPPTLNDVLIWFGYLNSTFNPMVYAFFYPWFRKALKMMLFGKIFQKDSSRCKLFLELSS

cells [12] = assay type: functional, cell-based; remark: listed apart in the source
[13] = target: T3, Trace amine-associated receptor 1; test: Counterscreen for agonists of the human trace amine associated receptor 1 (hTAAR1): Fluorescence-based cell-based high throughput dose response assay to identify hTAAR1 agonist that also desensitize TAAR1 receptor response.; assay type: functional
[14] = P. falciparum ATP4 D1247Y mutant growth inhibitors, dose response, NITD609-resistant line, SYBR Green, dry powder (AID 1159571); assay type: functional, cell-based;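 note: parasites synchronized at ring stage by sorbitol before testing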
[15] = HepG2 cell cytotoxicity, dose response, cytotoxicity control, plate reader, dry powder samples (AID 1159569); assay type: functional, cell-based;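 note: inhibitor potency with signal falling toward the positive control level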
[16] = P. falciparum 3D7-ScDHODH growth inhibitors, dose response, SYBR Green, dry powder samples (AID 1159570); assay type: functional, cell-based;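 note: parasite growth measured after 72 hours of compound exposure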
[17] = P. falciparum Dd2 growth inhibitors, dose response, SYBR Green, dry powder samples (AID 1159566); assay type: functional, cell-based;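 note: potency for growth inhibition with lower SYBR green DNA signal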
[18] = P. falciparum Dd2 growth inhibitors, dose response, SYBR Green, cherry-picked samples (AID 1159567); assay type: functional, cell-based
[19] = HepG2 cell cytotoxicity, dose response, cytotoxicity control, cherry-picked samples (AID 1159577); assay type: functional, cell-based
[20] = cytotoxicity toward Colo320 cells – cell-based, CellTiter-Glo luminescence, IC50, dose response (AID 1117334); assay type: functional; conditions: COLO 320
[21] = HeLa 4N DNA content increase, dose response, cell-based, IC50 (AID 1117351); assay type: functional
[22] = HCT116 cell viability decrease, GSK3B pretreatment – CellTiter-Glo, IC50, dose response (AID 1117339); assay type: functional; conditions: HCT-116
[23] = HeLa 2N DNA content increase, dose response, cell-based, IC50 (AID 1117349); assay type: functional
[24] = cytotoxicity toward HCT116 cells – cell-based, CellTiter-Glo luminescence, IC50, dose response (AID 1117332); assay type: functional; conditions: HCT-116
[25] = cytotoxicity toward HT-29 cells – cell-based, CellTiter-Glo luminescence, IC50, dose response (AID 1117330); assay type: functional
[26] = RKO cell viability reduction, dose response, CellTiter-Glo luminescence (AID 1117322); assay type: functional

Chain of 1-phosphatidylinositol 4,5-bisphosphate phosphodiesterase beta-3 (Q01970 whole entry): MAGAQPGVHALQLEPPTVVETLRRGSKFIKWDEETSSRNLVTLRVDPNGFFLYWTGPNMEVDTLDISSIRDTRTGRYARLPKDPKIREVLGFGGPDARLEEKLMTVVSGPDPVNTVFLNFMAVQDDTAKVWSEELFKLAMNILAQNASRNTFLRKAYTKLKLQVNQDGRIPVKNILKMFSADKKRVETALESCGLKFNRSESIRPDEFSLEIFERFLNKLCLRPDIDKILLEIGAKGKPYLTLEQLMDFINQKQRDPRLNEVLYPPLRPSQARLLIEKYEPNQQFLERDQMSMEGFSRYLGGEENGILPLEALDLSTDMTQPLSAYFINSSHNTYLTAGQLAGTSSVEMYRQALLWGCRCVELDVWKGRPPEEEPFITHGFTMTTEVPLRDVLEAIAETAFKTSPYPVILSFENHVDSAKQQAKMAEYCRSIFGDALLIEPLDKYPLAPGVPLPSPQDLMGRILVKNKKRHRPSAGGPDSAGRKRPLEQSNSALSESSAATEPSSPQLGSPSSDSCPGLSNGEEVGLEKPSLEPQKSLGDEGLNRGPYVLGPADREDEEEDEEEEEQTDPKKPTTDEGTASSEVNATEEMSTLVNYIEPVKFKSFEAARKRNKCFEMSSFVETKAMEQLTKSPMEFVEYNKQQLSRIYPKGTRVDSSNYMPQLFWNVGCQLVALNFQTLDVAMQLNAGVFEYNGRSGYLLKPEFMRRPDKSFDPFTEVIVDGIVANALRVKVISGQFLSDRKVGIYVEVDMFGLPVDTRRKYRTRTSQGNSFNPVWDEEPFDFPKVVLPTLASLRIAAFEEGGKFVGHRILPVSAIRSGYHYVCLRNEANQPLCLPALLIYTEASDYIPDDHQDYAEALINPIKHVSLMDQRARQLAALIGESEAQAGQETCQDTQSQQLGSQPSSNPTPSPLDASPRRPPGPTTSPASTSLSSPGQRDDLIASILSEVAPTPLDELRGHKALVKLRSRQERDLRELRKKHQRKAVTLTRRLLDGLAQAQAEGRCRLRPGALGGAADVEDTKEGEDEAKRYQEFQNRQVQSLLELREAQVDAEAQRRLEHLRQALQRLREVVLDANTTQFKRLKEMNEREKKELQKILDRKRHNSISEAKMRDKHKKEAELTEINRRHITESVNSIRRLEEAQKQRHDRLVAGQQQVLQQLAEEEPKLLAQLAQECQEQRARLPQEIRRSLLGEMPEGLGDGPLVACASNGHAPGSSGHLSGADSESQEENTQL
Chain of 1-phosphatidylinositol 4,5-bisphosphate phosphodiesterase gamma-1 (P19174 whole entry): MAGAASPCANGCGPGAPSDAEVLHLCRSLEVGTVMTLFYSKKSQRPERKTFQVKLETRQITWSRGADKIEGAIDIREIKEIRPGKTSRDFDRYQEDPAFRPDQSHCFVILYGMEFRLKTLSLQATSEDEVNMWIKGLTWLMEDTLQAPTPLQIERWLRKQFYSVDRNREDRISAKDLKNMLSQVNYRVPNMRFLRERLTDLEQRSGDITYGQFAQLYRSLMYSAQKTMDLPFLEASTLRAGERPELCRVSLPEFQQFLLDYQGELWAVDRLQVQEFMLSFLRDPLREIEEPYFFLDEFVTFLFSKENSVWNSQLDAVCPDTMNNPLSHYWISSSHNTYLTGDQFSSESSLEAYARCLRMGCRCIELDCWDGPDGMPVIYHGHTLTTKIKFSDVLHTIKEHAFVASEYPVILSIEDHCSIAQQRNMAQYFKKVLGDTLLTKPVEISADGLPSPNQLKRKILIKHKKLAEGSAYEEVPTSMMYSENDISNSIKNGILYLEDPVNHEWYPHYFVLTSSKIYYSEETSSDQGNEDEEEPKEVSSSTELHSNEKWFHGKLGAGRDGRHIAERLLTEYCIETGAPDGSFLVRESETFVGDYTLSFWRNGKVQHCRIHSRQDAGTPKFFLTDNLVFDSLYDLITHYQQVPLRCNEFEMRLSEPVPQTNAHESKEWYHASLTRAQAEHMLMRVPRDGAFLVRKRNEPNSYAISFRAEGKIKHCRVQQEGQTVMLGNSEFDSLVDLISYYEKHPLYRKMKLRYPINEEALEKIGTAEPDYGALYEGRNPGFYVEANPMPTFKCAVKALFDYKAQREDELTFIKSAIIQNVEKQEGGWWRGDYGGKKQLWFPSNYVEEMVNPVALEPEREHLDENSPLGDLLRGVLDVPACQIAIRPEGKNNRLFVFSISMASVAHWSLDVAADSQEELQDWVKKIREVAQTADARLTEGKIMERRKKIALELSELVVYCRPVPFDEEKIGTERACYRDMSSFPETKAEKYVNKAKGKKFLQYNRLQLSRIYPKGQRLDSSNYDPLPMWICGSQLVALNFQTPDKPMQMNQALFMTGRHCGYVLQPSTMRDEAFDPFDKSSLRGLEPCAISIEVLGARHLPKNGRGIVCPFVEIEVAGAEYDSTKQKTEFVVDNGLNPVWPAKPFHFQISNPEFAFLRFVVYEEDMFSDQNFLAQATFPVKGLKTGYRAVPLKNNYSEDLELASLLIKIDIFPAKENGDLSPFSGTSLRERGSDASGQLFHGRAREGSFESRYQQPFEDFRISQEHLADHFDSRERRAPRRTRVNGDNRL
Chain of NAD-dependent protein deacylase sirtuin-5, mitochondrial (Q9NXA8 whole entry): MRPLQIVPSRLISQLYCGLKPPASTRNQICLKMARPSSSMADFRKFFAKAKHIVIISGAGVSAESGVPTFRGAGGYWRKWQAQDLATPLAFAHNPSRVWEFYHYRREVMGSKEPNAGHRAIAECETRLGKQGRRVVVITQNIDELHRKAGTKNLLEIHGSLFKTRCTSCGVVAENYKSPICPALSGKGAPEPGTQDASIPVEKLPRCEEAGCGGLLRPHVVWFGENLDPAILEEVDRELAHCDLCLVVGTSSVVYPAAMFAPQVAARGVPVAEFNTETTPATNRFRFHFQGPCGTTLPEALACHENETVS
Chain of Large T antigen (P03070 whole entry): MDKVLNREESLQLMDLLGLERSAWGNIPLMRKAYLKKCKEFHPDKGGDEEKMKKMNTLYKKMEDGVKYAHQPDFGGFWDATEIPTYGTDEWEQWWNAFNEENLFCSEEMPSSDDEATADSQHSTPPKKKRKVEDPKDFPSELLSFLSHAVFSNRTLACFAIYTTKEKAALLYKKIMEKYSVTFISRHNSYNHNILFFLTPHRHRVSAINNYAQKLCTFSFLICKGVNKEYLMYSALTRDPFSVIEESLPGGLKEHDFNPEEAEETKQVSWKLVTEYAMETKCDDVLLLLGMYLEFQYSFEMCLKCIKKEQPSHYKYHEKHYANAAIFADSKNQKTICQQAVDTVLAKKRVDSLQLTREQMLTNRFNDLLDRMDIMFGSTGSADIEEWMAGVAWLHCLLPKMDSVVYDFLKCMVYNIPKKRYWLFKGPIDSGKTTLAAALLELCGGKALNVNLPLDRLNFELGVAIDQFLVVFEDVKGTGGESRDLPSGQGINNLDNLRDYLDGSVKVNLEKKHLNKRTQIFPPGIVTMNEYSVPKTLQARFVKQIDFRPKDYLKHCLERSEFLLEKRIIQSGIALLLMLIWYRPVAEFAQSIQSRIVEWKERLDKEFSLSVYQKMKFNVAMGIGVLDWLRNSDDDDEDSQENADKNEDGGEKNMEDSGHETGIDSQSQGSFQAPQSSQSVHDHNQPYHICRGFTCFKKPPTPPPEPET
Chain of Disintegrin and metalloproteinase domain-containing protein 17 (P78536 whole entry, the tested form may be a part): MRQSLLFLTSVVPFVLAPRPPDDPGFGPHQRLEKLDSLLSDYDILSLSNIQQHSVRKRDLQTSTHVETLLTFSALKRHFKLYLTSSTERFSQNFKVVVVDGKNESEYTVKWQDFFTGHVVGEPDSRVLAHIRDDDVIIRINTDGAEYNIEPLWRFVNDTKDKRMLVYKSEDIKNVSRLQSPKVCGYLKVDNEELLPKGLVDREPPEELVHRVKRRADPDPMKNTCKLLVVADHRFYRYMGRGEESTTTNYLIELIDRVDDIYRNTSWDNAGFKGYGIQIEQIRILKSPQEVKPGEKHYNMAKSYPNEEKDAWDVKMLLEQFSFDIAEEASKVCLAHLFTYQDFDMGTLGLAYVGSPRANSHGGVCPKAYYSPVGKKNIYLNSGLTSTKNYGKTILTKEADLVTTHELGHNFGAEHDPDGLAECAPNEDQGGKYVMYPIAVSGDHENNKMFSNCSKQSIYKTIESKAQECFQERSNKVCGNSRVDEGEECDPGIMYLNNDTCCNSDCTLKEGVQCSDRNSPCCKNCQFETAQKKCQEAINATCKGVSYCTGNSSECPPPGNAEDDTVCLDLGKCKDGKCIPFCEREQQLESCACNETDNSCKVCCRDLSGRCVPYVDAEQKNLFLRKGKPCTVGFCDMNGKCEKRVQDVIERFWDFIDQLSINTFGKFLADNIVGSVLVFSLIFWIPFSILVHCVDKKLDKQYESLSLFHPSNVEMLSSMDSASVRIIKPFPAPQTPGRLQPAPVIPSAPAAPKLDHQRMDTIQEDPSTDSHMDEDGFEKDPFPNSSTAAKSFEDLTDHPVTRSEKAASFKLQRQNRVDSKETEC

- IC50 [1]: > 123 µM (inactive)
- IC50 [2]: > 123 µM (inactive)
SMILES: COc1ccccc1COC(=O)c1cccc(S(=O)(=O)N2CCCC2)c1

- AC50 [3]: > 30 µM (inactive)
SMILES: CC(C)C[C@H](NC(=O)C1CCN(C(=O)[C@H](Cc2ccccc2)NC(=O)OC(C)(C)C)CC1)C(=O)O

SMILES: O=C1c2ccccc2S(=O)(=O)c2cc(N3CCC(C(=O)N4CCCCC4)CC3)ccc21
- EC50 [4]: > 300 µM (not active)
- EC50 [5]: > 300 µM (not active)
- AC50 (cells [6]): > 52 µM (inactive)

- IC50 [7]: > 69.6 µM (inactive)
- IC50 [1]: 47.2 µM (inactive)
- IC50 [8]: > 69.6 µM (inactive)
- IC50 [2]: 45.1 µM (inactive)
SMILES: CN1C(=O)c2cc(NS(=O)(=O)c3ccc(F)cc3)ccc2OC[C@H]2O[C@@H](CC(=O)NCC(F)(F)F)CC[C@@H]21

SMILES: CC(C)N1C[C@H](CNCc2ccc(Cl)cc2)Oc2c(NC(=O)c3ccncc3)cccc2C1=O
- AC50 [9]: 0.731 µM (active)

SMILES: Oc1ccc(/C=N\Nc2cnnc(O)c2Cl)c(O)c1
- IC50 (Large T antigen): 15.7 µM (active)
- IC50 (cells [10]): > 29.9 µM (inactive)
- EC50 [11]: 1.16 µM (active)
- EC50 (cells [12]): > 29.9 µM (inactive)
- IC50 [13]: 24.5 µM (inactive)

SMILES: C[C@@H]1CN([C@@H](C)CO)C(=O)c2c(c3ccccc3n2C)-c2ccccc2CO[C@@H]1CN(C)C(=O)Nc1cccc(Cl)c1Cl
- AC50 [14]: 0.572 µM (active)
- AC50 [15]: 23.5 µM (active)
- AC50 [16]: 1.62 µM (active)
- AC50 [17]: 0.85 µM (active)
- AC50 [18]: 1.52 µM (active)

SMILES: OC[C@@H]1Nc2ccc(-c3cccc(F)c3)cc2[C@@H]2[C@H]1CCN2Cc1ccncc1
- AC50 [14]: 0.814 µM (active)
- AC50 [15]: 29.5 µM (active)
- AC50 [16]: 2.02 µM (active)
- AC50 [17]: 0.638 µM (active)
- AC50 [19]: 27.6 µM (active)
- AC50 [18]: 1.27 µM (active)

SMILES: COc1cccc2c1C(=O)c1c(O)c3c(c(O)c1C2=O)C[C@@](O)(C(=O)CO)C[C@@H]3O[C@H]1C[C@H](N)[C@H](O[C@@H]2CCCCO2)[C@H](C)O1 [PIRARUBICIN]
- IC50 [20]: 2.01 µM (active)
- IC50 [21]: 0.0806 µM (active)
- IC50 [22]: 1.28 µM (active)
- IC50 [23]: 0.0795 µM (active)
- IC50 [24]: 0.911 µM (active)
- IC50 [25]: > 20 µM (inactive)
- IC50 [26]: 1.01 µM (active)

— ChEMBL document CHEMBL1201862, “PubChem BioAssay data set” (2004)
